Molecular target: T1, human Dopamine D1 receptor (Homo sapiens, UniProt P21728)
T1 construct: expressed in transfected cells; host or cells: Ltk- cells (mouse fibroblasts), membrane preparation
Test: radioligand binding competition assay, displacement of [3H]SCH 23390 from D1 receptor (Ltk-cells membranes);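 note: under 5 nM class also requires D2 to D1 selectivity above 500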
Conditions: class combines Ki (D1) and, for A and B, D2:D1 selectivity (Ki D2 / Ki D1); read-out: D1 binding and D2:D1 Selectivity
Excerpt: Biological Activity: Compounds from this disclosure have been biologically characterized by their ability to displace a known D1-like selective ligand, [3H]SCH 23390 from the human Dopamine D1 receptor, and a known D2-like selective ligand, [3H] Methylspiperone, from the human Dopamine D2 and D4 receptors.
Affinity values (Ki) of compounds at human dopamine receptors were ascertained using radioligand binding competition assays. Cells expressing D1 (Ltk-cells), D2 (long variant, Ltk-cells), D4 (CHO cells) and D5 (GH4C1 cells) receptors were lysed in hypotonic buffer for membrane preparation. Membranes were incubated with various concentrations of test compound and 1 nM [3H] SCH 23390 (D1 and D5) and 0.2 nM [3H] Methylspiperone for (D2 and D4) assays. Non-specific binding was defined as binding in the presence of 10 micromolar of SCH 23390 for D1 and D5 assays and 10 micromolar butaclamol for D2 and D4 assays. Following incubation to equilibrium (1 hour at room temperature), bound radioligand was separated from free by rapid filtration. Bound radioactivity on the dried filters was quantified by liquid scintillation counting.
Selectivity is determined by dividing Ki for D2, D4 or D5 receptors by Ki for D1 receptor.

T1 sequence (P21728 whole entry): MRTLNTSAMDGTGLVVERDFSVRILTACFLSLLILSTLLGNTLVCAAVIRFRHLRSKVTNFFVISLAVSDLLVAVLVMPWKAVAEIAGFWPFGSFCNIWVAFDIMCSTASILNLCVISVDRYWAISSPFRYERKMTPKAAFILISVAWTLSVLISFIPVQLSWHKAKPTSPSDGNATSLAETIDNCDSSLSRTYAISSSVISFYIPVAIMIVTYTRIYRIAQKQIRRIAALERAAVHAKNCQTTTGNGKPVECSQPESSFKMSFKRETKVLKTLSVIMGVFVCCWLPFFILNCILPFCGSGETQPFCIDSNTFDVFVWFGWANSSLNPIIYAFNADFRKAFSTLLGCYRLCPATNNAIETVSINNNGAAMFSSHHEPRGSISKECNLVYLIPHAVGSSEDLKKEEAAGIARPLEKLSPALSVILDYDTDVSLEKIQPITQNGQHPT

Ki | SMILES
0.05 to 10 µM | N=C(/C=C/c1ccc(-c2ccc(CO)cc2)cc1)Nc1ccc(Cl)cc1 [Example 111]
0.01 to 0.05 µM | N=C(/C=C/c1ccc(-c2cccc(F)c2)cc1)Nc1ccc(Cl)cc1 [Example 58]
0.01 to 0.05 µM | N=C(/C=C/c1ccc(Cc2c[nH]cn2)cc1)Nc1ccc(Cl)cc1 [Example 57]
0.01 to 0.05 µM | C=Cc1ccc(-c2ccc(/C=C/C(=N)Nc3ccc(Cl)cc3)cc2)cc1 [Example 59]
0.05 to 10 µM | N=C(/C=C/c1ccc(CN2CCOCC2)cc1)Nc1ccc(Cl)cc1 [Example 116]
0.05 to 10 µM | N=C(/C=C/c1ccc(Cc2ccccn2)cc1)Nc1ccc(Cl)cc1 [Example 19]
0.05 to 10 µM | CCCCN(CCCC)c1ccc(/C=C/C(=N)Nc2ccc(Cl)cc2)cc1 [Example 115]
0.05 to 10 µM | N=C(/C=C/c1ccc2ccccc2c1)Nc1ccc(Cl)cc1 [Example 78]
< 0.01 µM | N=C(/C=C/c1ccc(-c2ccc(C=O)cc2)cc1)Nc1ccc(Cl)cc1 [Example 44]
0.05 to 10 µM | N=C(/C=C/c1ccc(CN2CCCC2)cc1)Nc1ccc(Cl)cc1 [Example 108]
0.01 to 0.05 µM | N=C(/C=C/c1ccc(-c2ccsc2)cc1)Nc1ccc(Cl)cc1 [Example 64]
0.05 to 10 µM | COc1ccc(NC(=N)/C=C/c2ccc(N3CCNCC3)cc2Cl)cc1Cl [Example 96]
0.01 to 0.05 µM | COC(=O)C1CC1CN1CCN(c2ccc(/C=C/C(=N)Nc3ccc(Cl)cc3)c(Cl)c2)CC1 (stereo not shown) [Example 46]
0.05 to 10 µM | N=C(Nc1ccc(Cl)cc1)c1ccc2[nH]ccc2c1 [Example 89]
0.01 to 0.05 µM | CC(C)c1ccc(/C=C/C(=N)Nc2ccc(Cl)cc2)cc1 [Example 10]
0.05 to 10 µM | COc1ccc(-c2ccc(/C=C/C(=N)Nc3ccc(Cl)cc3)cc2)cc1OC [Example 107]
0.05 to 10 µM | COc1ccc(/C=C/C(=N)Nc2ccc(C(C)(C)C)cc2)cc1 [Example 133]
< 0.01 µM | CC1CCCCN1c1ccc(/C=C/C(=N)Nc2ccc(Cl)cc2)c(Cl)c1 (stereo not shown) [Example 20]
0.01 to 0.05 µM | N=C(/C=C/c1ccccc1Cl)Nc1ccc(Cl)cc1 [Example 73]
0.05 to 10 µM | COc1ccc(/C=C/C(=N)Nc2ccc(C)c([N+](=O)[O-])c2)cc1 [Example 130]
0.05 to 10 µM | N=C(/C=C/c1ccc2c(c1)OCCO2)Nc1ccc(Cl)cc1 [Example 105]
0.05 to 10 µM | CN1CCN(c2ccc3cc(C(=N)Nc4ccc(Cl)cc4)ccc3c2)CC1 [Example 112]

Ki | SMILES
0.01 to 0.05 µM | CCC1CCCCN1c1ccc(/C=C/C(=N)Nc2ccc(Cl)cc2)cc1 (stereo not shown) [Example 60]
0.05 to 10 µM | N=C(/C=C/c1cccc2ccccc12)Nc1ccc(Cl)cc1 [Example 12]
0.05 to 10 µM | N=C(/C=C/c1ccccc1)Nc1ccc(Cl)cc1 [Example 114]
0.05 to 10 µM | N=C(/C=C/c1ccccc1Br)Nc1ccc(Cl)cc1 [Example 76]
0.01 to 0.05 µM | N=C(/C=C/c1ccc(Cc2ccncc2)cc1)Nc1ccc(Cl)cc1 [Example 35]
0.05 to 10 µM | N=C(Nc1ccc(Cl)cc1)c1ccc2ccccc2n1 [Example 127]
0.01 to 0.05 µM | N=C(Nc1ccc(Cl)cc1)c1ccc2cc(N3CCNCC3)ccc2c1 [Example 71]
0.05 to 10 µM | Cc1ccc(/C=C/C(=N)Nc2ccc(Cl)cc2)cc1 [Example 28]
0.05 to 10 µM | COc1ccc(/C=C/C(=N)Nc2ccc(F)c(Cl)c2)cc1 [Example 18]
0.05 to 10 µM | COc1ccccc1C1CCN(c2ccc(/C=C/C(=N)Nc3ccc(Cl)cc3)cc2)CC1 [Example 113]
0.05 to 10 µM | CC(C)N1CCN(c2ccc(/C=C/C(=N)Nc3ccc(Cl)cc3)c(Cl)c2)CC1 [Example 77]
0.05 to 10 µM | N=C(/C=C/c1ccc(-c2ccc(C(F)(F)F)cc2)cc1)Nc1ccc(Cl)cc1 [Example 122]
< 0.005 µM | C[C@@H]1CNCCN1c1ccc(/C=C/C(=N)Nc2ccc(Cl)cc2)c(Cl)c1 [Example 39]
0.01 to 0.05 µM | N=C(/C=C/c1ccc(N2CCN(Cc3cccs3)CC2)cc1Cl)Nc1ccc(Cl)cc1 [Example 47]
0.05 to 10 µM | N=C(/C=C/c1ccc(N2CCCCC2)cc1)Nc1ccc(Cl)cc1 [Example 84]
0.05 to 10 µM | N=C(Nc1ccc(Cl)cc1)c1ccc2cc(N3CCN(C4CCCCC4)CC3)ccc2c1 [Example 97]
0.05 to 10 µM | N=C(/C=C/c1ccc(N2CCCC3CCCCC32)cc1)Nc1ccc(Cl)cc1 (stereo not shown) [Example 126]
< 0.01 µM | CC1CCCCN1c1ccc(/C=C/C(=N)Nc2ccc(Cl)cc2)cc1 (stereo not shown) [Example 32]
0.01 to 0.05 µM | COc1ccc(/C=C/C(=N)Nc2ccc(Cl)cc2)c(F)c1 [Example 54]
0.05 to 10 µM | N=C(/C=C/c1ccc(OC(F)(F)F)cc1)Nc1ccc(Cl)cc1 [Example 4]
0.05 to 10 µM | N=C(/C=C/c1ccc(Cl)cc1)Nc1ccc(Cl)cc1 [Example 80]
0.05 to 10 µM | COc1ccc(/C=C\C(=N)Nc2ccc(Cl)cc2)c(F)c1 [Example 85]

Ki | SMILES
0.05 to 10 µM | N=C(/C=C/c1ccc(Cc2cccnc2)cc1)Nc1ccc(OC(F)(F)F)cc1 [Example 124]
0.05 to 10 µM | N=C(/C=C/c1ccc(CNCc2ccccc2)cc1)Nc1ccc(Cl)cc1 [Example 110]
0.01 to 0.05 µM | COc1cc(N(C)C)ccc1/C=C/C(=N)Nc1ccc(Cl)cc1 [Example 51]
0.05 to 10 µM | N=C(/C=C/c1ccc(-c2ccc(CN3CCN(Cc4ccccc4)CC3)cc2)cc1)Nc1ccc(Cl)cc1 [Example 87]
0.05 to 10 µM | N=C(/C=C/c1ccc(-c2cc(F)cc(F)c2)cc1)Nc1ccc(Cl)cc1 [Example 99]
0.01 to 0.05 µM | N#Cc1cccc(-c2ccc(/C=C/C(=N)Nc3ccc(Cl)cc3)cc2)c1 [Example 30]
0.05 to 10 µM | COc1ccc(NC(=N)/C=C/c2ccccc2)cc1 [Example 117]
0.05 to 10 µM | COc1cccc2ccc(C(=N)Nc3ccc(Cl)cc3)nc12 [Example 94, N-(4-chloro-phenyl)-8-methoxy-quinoline-2-carboxamidine]
0.05 to 10 µM | COc1ccc(/C=C/C(=N)Nc2cccc(C)c2)cc1 [Example 17]
0.01 to 0.05 µM | N=C(Nc1ccc(Cl)cc1)c1ccc2cccc(O)c2n1 [Example 66]
0.01 to 0.05 µM | COc1ccc(/C=C/C(=N)Nc2ccc(Cl)cc2)cc1 [Example 70]
0.05 to 10 µM | COc1ccc2cc(C(=N)Nc3ccc(Cl)cc3)ccc2c1 [Example 26]
0.05 to 10 µM | N=C(/C=C/c1ccc(N2CCOCC2)cc1)Nc1ccc(Cl)cc1 [Example 86]
0.01 to 0.05 µM | COc1ccc(/C=C/C(=N)Nc2ccc(Cl)cc2)cc1Cl [Example 65]
0.05 to 10 µM | N=C(/C=C/c1ccc(CN2CCCCC2)cc1)Nc1ccc(Cl)cc1 [Example 6]
0.05 to 10 µM | N=C(Nc1ccc(Cl)cc1)c1ccc2nc(N3CCNCC3)ccc2c1 [Example 79]
0.01 to 0.05 µM | N=C(/C=C/c1ccc(N2CCN(Cc3ccccc3)CC2)cc1)Nc1ccc(Cl)cc1 [Example 36]
0.05 to 10 µM | COc1cccc(OC)c1/C=C/C(=N)Nc1ccc(Cl)cc1 [Example 27]
0.05 to 10 µM | COc1ccc(NC(=N)/C=C/c2ccc(Cc3cccnc3)cc2)cc1 [Example 121]
0.05 to 10 µM | N=C(Cc1ccc2ccccc2c1)Nc1ccc(Cl)cc1 [Example 132]
0.05 to 10 µM | COc1ccc2cc(C(=N)Nc3ccc(Cl)cc3F)ccc2c1 [Example 119]
0.05 to 10 µM | N=C(/C=C/c1ccc(Cc2cccnc2)cc1)Nc1ccc2c(c1)OCO2 [Example 22]

Ki | SMILES
0.05 to 10 µM | COc1ccc(/C=C\C(=N)Nc2ccc(Cl)cc2)cc1 [Example 81]
0.05 to 10 µM | N=C(/C=C/c1ccc(N2CCNCC2)cc1Cl)Nc1ccc(O)c(Cl)c1 [Example 123]
0.05 to 10 µM | COc1ccc(/C=C/C(=N)Nc2ccc(OC)c(OC)c2)cc1 [Example 129]
0.05 to 10 µM | Cc1ccc(C)n1-c1ccc(/C=C/C(=N)Nc2ccc(Cl)cc2)cc1 [Example 95]
0.05 to 10 µM | N=C(/C=C/c1ccccc1I)Nc1ccc(Cl)cc1 [Example 5]
< 0.01 µM | CN1CCN(c2ccc(/C=C/C(=N)Nc3ccc(Cl)cc3)c(Cl)c2)CC1 [Example 33]
0.01 to 0.05 µM | N=C(/C=C/c1ccc(-c2cccc([N+](=O)[O-])c2)cc1)Nc1ccc(Cl)cc1 [Example 41]
0.01 to 0.05 µM | CC(=O)c1ccc(-c2ccc(/C=C/C(=N)Nc3ccc(Cl)cc3)cc2)cc1 [Example 49]
0.01 to 0.05 µM | CCN(CC)c1ccc(/C=C/C(=N)Nc2ccc(Cl)cc2)cc1 [Example 38]
0.05 to 10 µM | N=C(/C=C/c1ccc(O)c(Cl)c1)Nc1ccc(Cl)cc1 [Example 92]
0.05 to 10 µM | N=C(/C=C/c1cc(C(F)(F)F)cc(C(F)(F)F)c1)Nc1ccc(Cl)cc1 [Example 2]
0.01 to 0.05 µM | N=C(/C=C/c1ccc(N2CCN(Cc3cccc(OC(F)(F)F)c3)CC2)cc1Cl)Nc1ccc(Cl)cc1 [Example 53]
0.05 to 10 µM | N=C(/C=C/c1ccc(Cc2cccnc2)cc1)Nc1ccc(Cl)c(O)c1 [Example 128]
0.05 to 10 µM | N=C(/C=C/c1ccc(N)cc1)Nc1ccc(Cl)cc1 [Example 98]
0.01 to 0.05 µM | N=C(/C=C/c1ccc(Cc2cccnc2)cc1)Nc1ccc(Cl)cc1 [Example 48]
0.05 to 10 µM | N=C(/C=C/c1ccc(Cl)c([N+](=O)[O-])c1)Nc1ccc(Cl)cc1 [Example 3]
0.05 to 10 µM | N=C(/C=C/c1ccc(N2CCCC2)cc1)Nc1ccc(Cl)cc1 [Example 90]
0.01 to 0.05 µM | N=C(/C=C/c1ccc(-c2ccccn2)cc1)Nc1ccc(Cl)cc1 [Example 25]
0.01 to 0.05 µM | CC(C)(C)c1ccc(/C=C/C(=N)Nc2ccc(Cl)cc2)cc1 [Example 7]

Reference: patent US7423149B2, “Substituted n-aryl amidines as selective D1 dopamine receptor antagonists for the treatment of obesity and CNS disorders” (Schering Corporation, priority 2003, dated 2008)
